Measured values reported in PubChem BioAssay (NCI).
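Protocol summary: plate cells (96-well), add compound at 5 concentrations, incubate 48 h, interpolate endpoints linearly. Definition used: TGI = concentration required for complete inhibition of growth.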

What was measured:
Test in all cases: NCI anticancer screen, dose series, 48 h
786-0 renal = test system: 786-0 renal
A498 renal = test system: A498 renal
A549 NSCLC = test system: A549 NSCLC
ACHN renal = test system: ACHN renal
BT-549 breast = test system: BT-549 breast
CAKI-1 renal = test system: CAKI-1 renal
CCRF-CEM leukemia = test system: CCRF-CEM leukemia
COLO 205 colon = test system: COLO 205 colon
DU-145 prostate = test system: DU-145 prostate
HCC-2998 colon = test system: HCC-2998 colon
HCT-116 colon = test system: HCT-116 colon
HCT-15 colon = test system: HCT-15 colon
HOP-62 NSCLC = test system: HOP-62 NSCLC
HOP-92 NSCLC = test system: HOP-92 NSCLC
HS 578T breast = test system: HS 578T breast
HT29 colon = test system: HT29 colon
IGROV1 ovarian = test system: IGROV1 ovarian
K-562 leukemia = test system: K-562 leukemia
KM12 colon = test system: KM12 colon
LOX IMVI melanoma = test system: LOX IMVI melanoma
M14 melanoma = test system: M14 melanoma
MALME-3M melanoma = test system: MALME-3M melanoma
MDA-MB-231 breast = test system: MDA-MB-231 breast
MDA-MB-435 = test system: MDA-MB-435
MDA-N = test system: MDA-N
MOLT-4 leukemia = test system: MOLT-4 leukemia
NCI-H226 lung = test system: NCI-H226 lung
NCI-H23 lung = test system: NCI-H23 lung
NCI-H460 lung = test system: NCI-H460 lung
NCI-H522 lung = test system: NCI-H522 lung
NCI/ADR-RES ovarian = test system: NCI/ADR-RES ovarian
OVCAR-3 ovarian = test system: OVCAR-3 ovarian
OVCAR-4 ovarian = test system: OVCAR-4 ovarian
OVCAR-5 ovarian = test system: OVCAR-5 ovarian
OVCAR-8 ovarian = test system: OVCAR-8 ovarian
PC-3 prostate = test system: PC-3 prostate
RPMI-8226 leukemia = test system: RPMI-8226 leukemia
RXF 393 renal = test system: RXF 393 renal
SF-268 CNS = test system: SF-268 CNS
SF-295 CNS = test system: SF-295 CNS
SK-MEL-2 melanoma = test system: SK-MEL-2 melanoma
SK-MEL-28 melanoma = test system: SK-MEL-28 melanoma
SK-MEL-5 melanoma = test system: SK-MEL-5 melanoma
SK-OV-3 ovarian = test system: SK-OV-3 ovarian
SN12C renal = test system: SN12C renal
SNB-19 CNS = test system: SNB-19 CNS
SNB-75 CNS = test system: SNB-75 CNS
SR leukemia = test system: SR leukemia
SW-620 colon = test system: SW-620 colon
T-47D breast = test system: T-47D breast
TK-10 renal = test system: TK-10 renal
U251 CNS = test system: U251 CNS
UACC-257 melanoma = test system: UACC-257 melanoma
UACC-62 melanoma = test system: UACC-62 melanoma
UO-31 renal = test system: UO-31 renal
EKVX NSCLC = test system: EKVX NSCLC
HL-60(TB) leukemia = test system: HL-60(TB) leukemia
MCF7 breast = test system: MCF7 breast
SF-539 CNS = test system: SF-539 CNS

`O=c1c2sc3nc(NCCN4CCCCC4)ncc3c2ncn1-c1ccccc1` was tested, and the TGI (786-0 renal) was greater than 100 µM, the TGI (A498 renal) was greater than 100 µM and the TGI (A549 NSCLC) was greater than 100 µM. For the same compound, the TGI (ACHN renal) was greater than 100 µM, the TGI (BT-549 breast) was greater than 100 µM and the TGI (CAKI-1 renal) was greater than 100 µM. It also gave a TGI (CCRF-CEM leukemia) greater than 100 µM, a TGI (COLO 205 colon) greater than 100 µM and a TGI (DU-145 prostate) greater than 100 µM. For the same compound, the TGI (HCC-2998 colon) was greater than 100 µM, the TGI (HCT-116 colon) was greater than 100 µM and the TGI (HCT-15 colon) was greater than 100 µM. The TGI (HOP-62 NSCLC) was greater than 100 µM, the TGI (HOP-92 NSCLC) was 95.5 µM and the TGI (HS 578T breast) was greater than 100 µM. For the same compound, the TGI (HT29 colon) was greater than 100 µM, the TGI (IGROV1 ovarian) was greater than 100 µM and the TGI (K-562 leukemia) was greater than 100 µM. It also gave a TGI (KM12 colon) greater than 100 µM, a TGI (LOX IMVI melanoma) of 41.9 µM and a TGI (M14 melanoma) of 39.2 µM. The TGI (MALME-3M melanoma) was 58.4 µM, the TGI (MDA-MB-231 breast) was greater than 100 µM and the TGI (MDA-MB-435) was greater than 100 µM. For the same compound, the TGI (MDA-N) was greater than 100 µM, the TGI (MOLT-4 leukemia) was greater than 100 µM and the TGI (NCI-H226 lung) was greater than 100 µM. The TGI (NCI-H23 lung) was greater than 100 µM, the TGI (NCI-H460 lung) was greater than 100 µM and the TGI (NCI-H522 lung) was greater than 100 µM. The TGI (NCI/ADR-RES ovarian) was greater than 100 µM, the TGI (OVCAR-3 ovarian) was greater than 100 µM and the TGI (OVCAR-4 ovarian) was greater than 100 µM. It also gave a TGI (OVCAR-5 ovarian) greater than 100 µM, a TGI (OVCAR-8 ovarian) greater than 100 µM and a TGI (PC-3 prostate) greater than 100 µM. It also gave a TGI (RPMI-8226 leukemia) greater than 100 µM, a TGI (RXF 393 renal) of 84.4 µM and a TGI (SF-268 CNS) greater than 100 µM. For the same compound, the TGI (SF-295 CNS) was greater than 100 µM, the TGI (SK-MEL-2 melanoma) was greater than 100 µM and the TGI (SK-MEL-28 melanoma) was greater than 100 µM. For the same compound, the TGI (SK-MEL-5 melanoma) was 36.3 µM, the TGI (SK-OV-3 ovarian) was greater than 100 µM and the TGI (SN12C renal) was greater than 100 µM. For the same compound, the TGI (SNB-19 CNS) was greater than 100 µM, the TGI (SNB-75 CNS) was greater than 100 µM and the TGI (SR leukemia) was greater than 100 µM. It also gave a TGI (SW-620 colon) greater than 100 µM, a TGI (T-47D breast) greater than 100 µM and a TGI (TK-10 renal) greater than 100 µM. The TGI (U251 CNS) was greater than 100 µM, the TGI (UACC-257 melanoma) was greater than 100 µM and the TGI (UACC-62 melanoma) was greater than 100 µM. The TGI (UO-31 renal) was 49.9 µM.

Compound `COc1cc(/C=N/NC(=O)c2ccc(NC(C)=O)cc2OC)ccc1O` has a TGI (786-0 renal) greater than 100 µM, a TGI (A498 renal) greater than 100 µM and a TGI (A549 NSCLC) greater than 100 µM. It also gave a TGI (ACHN renal) greater than 100 µM, a TGI (BT-549 breast) greater than 100 µM and a TGI (CAKI-1 renal) greater than 100 µM. It also gave a TGI (CCRF-CEM leukemia) greater than 100 µM, a TGI (COLO 205 colon) greater than 100 µM and a TGI (DU-145 prostate) greater than 100 µM. The TGI (EKVX NSCLC) was greater than 100 µM, the TGI (HCT-116 colon) was greater than 100 µM and the TGI (HCT-15 colon) was greater than 100 µM. For the same compound, the TGI (HL-60(TB) leukemia) was greater than 100 µM, the TGI (HOP-92 NSCLC) was 54.3 µM and the TGI (HS 578T breast) was 81.6 µM. The TGI (HT29 colon) was greater than 100 µM, the TGI (IGROV1 ovarian) was greater than 100 µM and the TGI (K-562 leukemia) was greater than 100 µM. The TGI (KM12 colon) was greater than 100 µM, the TGI (LOX IMVI melanoma) was greater than 100 µM and the TGI (M14 melanoma) was greater than 100 µM. The TGI (MALME-3M melanoma) was greater than 100 µM, the TGI (MCF7 breast) was greater than 100 µM and the TGI (MDA-MB-435) was greater than 100 µM. For the same compound, the TGI (MDA-N) was greater than 100 µM, the TGI (MOLT-4 leukemia) was greater than 100 µM and the TGI (NCI-H226 lung) was greater than 100 µM. It also gave a TGI (NCI-H23 lung) greater than 100 µM, a TGI (NCI-H522 lung) greater than 100 µM and a TGI (NCI/ADR-RES ovarian) greater than 100 µM. The TGI (OVCAR-3 ovarian) was greater than 100 µM, the TGI (OVCAR-4 ovarian) was greater than 100 µM and the TGI (OVCAR-5 ovarian) was greater than 100 µM. For the same compound, the TGI (OVCAR-8 ovarian) was greater than 100 µM, the TGI (PC-3 prostate) was greater than 100 µM and the TGI (RPMI-8226 leukemia) was greater than 100 µM. For the same compound, the TGI (RXF 393 renal) was greater than 100 µM, the TGI (SF-268 CNS) was greater than 100 µM and the TGI (SF-295 CNS) was greater than 100 µM. For the same compound, the TGI (SF-539 CNS) was greater than 100 µM, the TGI (SK-MEL-2 melanoma) was 93.3 µM and the TGI (SK-MEL-28 melanoma) was greater than 100 µM. For the same compound, the TGI (SK-MEL-5 melanoma) was greater than 100 µM, the TGI (SK-OV-3 ovarian) was greater than 100 µM and the TGI (SN12C renal) was greater than 100 µM. For the same compound, the TGI (SNB-19 CNS) was greater than 100 µM, the TGI (SNB-75 CNS) was 73 µM and the TGI (SR leukemia) was greater than 100 µM. For the same compound, the TGI (SW-620 colon) was greater than 100 µM, the TGI (T-47D breast) was greater than 100 µM and the TGI (UACC-62 melanoma) was greater than 100 µM. The TGI (UO-31 renal) was greater than 100 µM.

In the case of `CC(C)=CCC[C@@H](C)C1=C(O)C(c2c(I)c(=O)n(C)c(=O)n2C)=C(C)C(=O)C1=O`, the TGI (786-0 renal) is reported as greater than 100 µM, the TGI (A498 renal) is reported as greater than 100 µM and the TGI (A549 NSCLC) is reported as greater than 100 µM. It also gave a TGI (ACHN renal) greater than 100 µM, a TGI (BT-549 breast) greater than 100 µM and a TGI (CAKI-1 renal) greater than 100 µM. For the same compound, the TGI (CCRF-CEM leukemia) was greater than 100 µM, the TGI (COLO 205 colon) was greater than 100 µM and the TGI (DU-145 prostate) was greater than 100 µM. The TGI (EKVX NSCLC) was greater than 100 µM, the TGI (HCC-2998 colon) was greater than 100 µM and the TGI (HCT-116 colon) was greater than 100 µM. The TGI (HCT-15 colon) was greater than 100 µM, the TGI (HL-60(TB) leukemia) was greater than 100 µM and the TGI (HOP-62 NSCLC) was greater than 100 µM. It also gave a TGI (HOP-92 NSCLC) greater than 100 µM, a TGI (HS 578T breast) greater than 100 µM and a TGI (HT29 colon) greater than 100 µM. It also gave a TGI (IGROV1 ovarian) greater than 100 µM, a TGI (K-562 leukemia) greater than 100 µM and a TGI (KM12 colon) greater than 100 µM. It also gave a TGI (LOX IMVI melanoma) greater than 100 µM, a TGI (M14 melanoma) greater than 100 µM and a TGI (MALME-3M melanoma) greater than 100 µM. It also gave a TGI (MCF7 breast) greater than 100 µM, a TGI (MDA-MB-435) greater than 100 µM and a TGI (MDA-N) greater than 100 µM. The TGI (MOLT-4 leukemia) was greater than 100 µM, the TGI (NCI-H226 lung) was greater than 100 µM and the TGI (NCI-H23 lung) was greater than 100 µM. It also gave a TGI (NCI-H460 lung) greater than 100 µM, a TGI (NCI/ADR-RES ovarian) greater than 100 µM and a TGI (OVCAR-3 ovarian) greater than 100 µM. The TGI (OVCAR-4 ovarian) was greater than 100 µM, the TGI (OVCAR-5 ovarian) was greater than 100 µM and the TGI (OVCAR-8 ovarian) was greater than 100 µM. It also gave a TGI (PC-3 prostate) greater than 100 µM, a TGI (RPMI-8226 leukemia) greater than 100 µM and a TGI (SF-268 CNS) greater than 100 µM. It also gave a TGI (SF-295 CNS) greater than 100 µM, a TGI (SF-539 CNS) greater than 100 µM and a TGI (SK-MEL-2 melanoma) greater than 100 µM. For the same compound, the TGI (SK-MEL-28 melanoma) was greater than 100 µM, the TGI (SK-OV-3 ovarian) was greater than 100 µM and the TGI (SN12C renal) was greater than 100 µM. The TGI (SNB-19 CNS) was greater than 100 µM, the TGI (SNB-75 CNS) was greater than 100 µM and the TGI (SW-620 colon) was greater than 100 µM. The TGI (T-47D breast) was greater than 100 µM, the TGI (TK-10 renal) was greater than 100 µM and the TGI (UACC-257 melanoma) was greater than 100 µM. The TGI (UO-31 renal) was greater than 100 µM.
